Assay results from patent US9695155B2, “Herbicidal substituted pyrimidinyloxy benzene compounds” (E. I. DU PONT DE NEMOURS AND COMPANY, priority 2013, dated 2017).

Assays:
kochia = assay: Test A postemergence; assay type: in vivo, Kochia scoparia
Outline: (§1)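 Scoring: eye-based comparison with untreated controls, 0 for no effect through 100 for complete control, at about day 10. Treatments: directed soil spray preemergence; foliar spray postemergence on 2–10 cm plants at the one- to two-leaf stage. Medium: loam soil with sand.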

Italian ryegrass [1] = assay: Test A postemergence; assay type: in vivo, Lolium multiflorum
Outline: as §1

giant foxtail = assay: Test C preemergence; assay type: in vivo, Setaria faberii; conditions: Setaria faberi, pre-emergence
Outline: (§2)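 Preemergence: seeds sown in a loam soil–sand blend and sprayed with test chemical in a non-phytotoxic solvent mixture containing surfactant. Postemergence: plants at 2 to 18 cm (1- to 4-leaf stage) in peat-based medium, treated with the same formulation. Greenhouse 13 to 15 days, then visual rating 0 (no effect) to 100 (complete control).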

yellow nutsedge = assay: Test C preemergence; assay type: in vivo, Cyperus esculentus; conditions: Cyperus, pre-emergence, preemergence, scale 0 (no effect) to 100 (complete control), read-out: Nutsedge, Yellow plant response rating
Outline: as §2

blackgrass [2] = assay: Test A postemergence; assay type: in vivo, Alopecurus myosuroides
Outline: as §1

large (Lg) crabgrass = assay: Test C preemergence; assay type: in vivo, Digitaria sanguinalis; conditions: Digitaria sanguinalis, pre-emergence
Outline: as §2

Italian ryegrass [3] = assay: Test C preemergence; assay type: in vivo, Lolium multiflorum; conditions: Lolium multiflorum, pre-emergence, preemergence, read-out: Ryegrass, Italian plant response rating
Outline: as §2

oilseed rape = assay: Test C preemergence; assay type: in vivo, Brassica napus; conditions: Brassica napus, pre-emergence, preemergence, read-out: Oilseed Rape plant response rating
Outline: as §2

waterhemp = assay: Test C preemergence; assay type: in vivo, Amaranthus rudis; conditions: Amaranthus tuberculatus, pre-emergence, preemergence, read-out: Waterhemp plant response rating
Outline: as §2

blackgrass [4] = assay: Test C preemergence; assay type: in vivo, Alopecurus myosuroides; conditions: Alopecurus myosuroides, pre-emergence
Outline: as §2

pigweed = assay: Test C preemergence; assay type: in vivo, Amaranthus retroflexus; conditions: Amaranthus retroflexus, pre-emergence, preemergence, read-out: Pigweed plant response rating
Outline: as §2

johnsongrass = assay: Test C preemergence; assay type: in vivo, Sorghum halepense; conditions: Sorghum halepense, pre-emergence, preemergence, read-out: Johnsongrass plant response rating
Outline: as §2

velvetleaf = assay: Test C preemergence; assay type: in vivo, Abutilon theophrasti; conditions: Abutilon theophrasti, pre-emergence, preemergence, read-out: Velvetleaf plant response rating
Outline: as §2

lambsquarters = assay: Test C preemergence; assay type: in vivo, Chenopodium album; conditions: Chenopodium album, pre-emergence, preemergence, read-out: Lambsquarters plant response rating
Outline: as §2

ragweed = assay: Test A postemergence; assay type: in vivo, Ambrosia elatior
Outline: as §1

barnyardgrass = assay: Test C preemergence; assay type: in vivo, Echinochloa crus-galli; conditions: Echinochloa crus-galli, pre-emergence
Outline: as §2

morningglory = assay: Test C preemergence; assay type: in vivo, Ipomoea coccinea; conditions: Ipomoea, pre-emergence, preemergence, read-out: Morningglory plant response rating
Outline: as §2

soybean = assay: Test C preemergence; assay type: in vivo, Glycine max; conditions: Glycine max, pre-emergence, preemergence, read-out: Soybean plant response rating
Outline: as §2

galium = assay: Test A postemergence; assay type: in vivo, Galium aparine
Outline: as §1

[5] = 31 g ai/ha, 0 to 100 scale, 0 no effect, 100 complete control
[6] = 125 g ai/ha, 0 to 100 scale where 0 is no effect and 100 is complete control
[7] = 16 g ai/ha, scale 0 to 100 (0 no effect, 100 complete control)
[8] = 62 g ai/ha, scale 0 (no effect) to 100 (complete control)
[9] = 125 g ai/ha, scale 0 (no effect) to 100 (complete control)

Fc1cccc(Oc2ncc(Cl)cn2)c1-n1cc(C(F)F)nn1 [Compound 141, 5-chloro-2-[2-[4-(difluoromethyl)-1H-1,2,3-triazol-1-yl]-3-fluorophenoxy]pyrimidine]
Plant response rating, Kochia (kochia; [5]): 100 | Kochia plant response rating (kochia; [6]): 100 | Plant response rating, Ryegrass, Italian (Italian ryegrass [1]; [5]): 60 | Ryegrass, Italian plant response rating (Italian ryegrass [1]; [6]): 80 | pest or weed control at 16 g/ha (giant foxtail; 16 g ai/ha, preemergence, scale 0 to 100 (0 no effect, 100 complete control), read-out: Foxtail, Giant plant response rating): 90% | pest or weed control at 62 g/ha (giant foxtail; 62 g ai/ha, preemergence, scale 0 (no effect) to 100 (complete control), read-out: Foxtail, Giant plant response rating): 100% | pest or weed control at 125 g/ha (giant foxtail; 125 g ai/ha, preemergence, scale 0 (no effect) to 100 (complete control), read-out: Foxtail, Giant plant response rating): 100% | pest or weed control at 31 g/ha (giant foxtail; Preemergence, 31 g ai/ha, scale 0 to 100, 0 no effect, 100 complete control, read-out: Plant response rating, Foxtail, Giant): 100% | pest or weed control at 62 g/ha (yellow nutsedge; 62 g ai/ha): 70% | pest or weed control at 125 g/ha (yellow nutsedge; 125 g ai/ha): 95% | Plant response rating, Blackgrass (blackgrass [2]; [5]): 90 | Blackgrass plant response rating (blackgrass [2]; [6]): 100 | pest or weed control at 16 g/ha (large (Lg) crabgrass; 16 g ai/ha, preemergence, scale 0 to 100 (0 no effect, 100 complete control), read-out: Crabgrass, Large plant response rating): 100% | pest or weed control at 62 g/ha (large (Lg) crabgrass; 62 g ai/ha, preemergence, scale 0 (no effect) to 100 (complete control), read-out: Crabgrass, Large plant response rating): 100% | pest or weed control at 125 g/ha (large (Lg) crabgrass; 125 g ai/ha, preemergence, scale 0 (no effect) to 100 (complete control), read-out: Crabgrass, Large plant response rating): 100% | pest or weed control at 31 g/ha (large (Lg) crabgrass; Preemergence, 31 g ai/ha, scale 0 to 100, 0 no effect, 100 complete control, read-out: Plant response rating, Crabgrass, Large): 100% | pest or weed control at 16 g/ha (Italian ryegrass [3]; [7]): 40% | pest or weed control at 62 g/ha (Italian ryegrass [3]; [8]): 75% | pest or weed control at 125 g/ha (Italian ryegrass [3]; [9]): 100% | plant injury at 16 g/ha (oilseed rape; [7]): 100% | plant injury at 62 g/ha (oilseed rape; [8]): 100% | plant injury at 125 g/ha (oilseed rape; [9]): 100% | pest or weed control at 16 g/ha (waterhemp; [7]): 100% | pest or weed control at 62 g/ha (waterhemp; [8]): 100% | pest or weed control at 125 g/ha (waterhemp; [9]): 100% | pest or weed control at 16 g/ha (blackgrass [4]; 16 g ai/ha, preemergence, scale 0 to 100 (0 no effect, 100 complete control), read-out: Blackgrass plant response rating): 80% | pest or weed control at 62 g/ha (blackgrass [4]; 62 g ai/ha, preemergence, scale 0 (no effect) to 100 (complete control), read-out: Blackgrass plant response rating): 95% | pest or weed control at 125 g/ha (blackgrass [4]; 125 g ai/ha, preemergence, scale 0 (no effect) to 100 (complete control), read-out: Blackgrass plant response rating): 95% | pest or weed control at 31 g/ha (blackgrass [4]; Preemergence, 31 g ai/ha, scale 0 to 100, 0 no effect, 100 complete control, read-out: Plant response rating, Blackgrass): 95% | pest or weed control at 16 g/ha (pigweed; [7]): 100% | pest or weed control at 62 g/ha (pigweed; [8]): 100% | pest or weed control at 125 g/ha (pigweed; [9]): 100% | pest or weed control at 16 g/ha (johnsongrass; [7]): 30% | pest or weed control at 62 g/ha (johnsongrass; [8]): 100% | pest or weed control at 125 g/ha (johnsongrass; [9]): 100% | pest or weed control at 16 g/ha (velvetleaf; [7]): 100% | pest or weed control at 62 g/ha (velvetleaf; [8]): 100% | pest or weed control at 125 g/ha (velvetleaf; [9]): 100% | pest or weed control at 16 g/ha (lambsquarters; [7]): 85% | pest or weed control at 62 g/ha (lambsquarters; [8]): 100% | pest or weed control at 125 g/ha (lambsquarters; [9]): 100% | Plant response rating, Ragweed (ragweed; [5]): 80 | Ragweed plant response rating (ragweed; [6]): 100 | pest or weed control at 16 g/ha (barnyardgrass; 16 g ai/ha, preemergence, scale 0 to 100 (0 no effect, 100 complete control), read-out: Barnyardgrass plant response rating): 80% | pest or weed control at 62 g/ha (barnyardgrass; 62 g ai/ha, preemergence, scale 0 (no effect) to 100 (complete control), read-out: Barnyardgrass plant response rating): 100% | pest or weed control at 125 g/ha (barnyardgrass; 125 g ai/ha, preemergence, scale 0 (no effect) to 100 (complete control), read-out: Barnyardgrass plant response rating): 100% | pest or weed control at 31 g/ha (barnyardgrass; Preemergence, 31 g ai/ha, scale 0 to 100, 0 no effect, 100 complete control, read-out: Plant response rating, Barnyardgrass): 100% | pest or weed control at 16 g/ha (morningglory; [7]): 75% | pest or weed control at 62 g/ha (morningglory; [8]): 100% | pest or weed control at 125 g/ha (morningglory; [9]): 100% | plant injury at 16 g/ha (soybean; [7]): 65% | plant injury at 62 g/ha (soybean; [8]): 90% | plant injury at 125 g/ha (soybean; [9]): 98% | Plant response rating, Galium (galium; [5]): 100 | Galium plant response rating (galium; [6]): 100
